Laboratory results published in patent publication US20220387466A1, “COMPOUNDS AND PHARMACEUTICAL COMPOSITIONS FOR PREVENTION AND/OR TREATMENT OF DYSBIOSIS AND ANTIBACTERIAL ANTIDOTES FOR MICROBIOME-PROTECTION” (priority 2019, published 2022).
In brackets after ≈: the same amount, converted by molar mass. Entries after “also recorded” stand apart in the source; their conditions may differ.

Tests used:
[1] = test system: seven-member synthetic community including the pathogen E. faecalis; assay: E. faecalis-containing synthetic community, community growth AUC (Example 7); assay type: cell-based
Excerpt: (§1) Heat maps show median area under the growth curve (AUC) of the seven-member synthetic community including the pathogen E. faecalis. The numbers within the heat map represent the total number of all E. faecalis viable cells for each erythromycin-antidote combination as determined by enumerating of E. faecalis colony forming units after plating on selective medium. All drug concentrations are in μM. n. d.=not detectable.
(§2) The inventors exposed synthetic communities that contained the intestinal gut pathogen E. faecalis to erythromycin, and evaluated rescue of gut commensals and simultaneous killing of the pathogen in the presence of antidotes.

[2] = test system: E. faecalis; assay: Antidote with macrolide on enterococci (Example 6); assay type: cell-based, Enterococcus faecalis
Excerpt: Heat maps show median area under the growth curve (AUC) of three biologically independent replicates. […] All drug concentrations are in μM.
Here, the inventors expanded testing towards additional antidotes, and included the intestinal human pathogen Enterococcus faecalis.

[3] = test system: E. faecium; assay: Antidote with macrolide on enterococci (Example 6); assay type: cell-based
[4] = test system: Streptococcus pneumoniae; assay: Antagonist concentration gradients at constant antibiotic concentration, aerobic; assay type: cell-based
Procedure: (§3) Checkerboard assays for pathogens under aerobic conditions: For three pathogens (S. aureus Newman ATCC 13420, S. aureus subsp. aureus Rosenbach 1884 DSM20231 and E. faecium ATCC19434) 8×8 checkerboard assays were performed in transparent 384 well plates (Greiner BioOne GmbH), with each well containing 30 μl (50 μl for S. pneumoniae) in total. S. aureus strains were grown in tryptic soy broth, E. faecium in BHI medium. Antagonistic drug concentrations were 2-fold distant. Cell were inoculated at initial OD595 nm 0.01 from an overnight culture. Plates were sealed with breathable membranes (Breathe-Easy), incubated at 37° C. (Cytomat 2, Thermo Scientific) with continuous shaking and OD595 nm was measured every 30 minutes for 16 hours in a Filtermax F5 multimode plate reader (Molecular Devices). Growth was evaluated at the transition to stationary phase (9 hours for S. aureus, 12 hours for E. faecium). All experiments were done at least in 2 biological replicates and 2 technical replicates. For S. pneumoniae […], the inventors only tested concentration gradients of the potential antagonists in constant concentration of the antibiotics in BHI medium.

[5] = test system: B. vulgatus; assay: 8x8 checkerboard assay for anaerobic commensals (antibiotic vs antagonist); assay type: cell-based, Bacteroides vulgatus; conditions: for rescue of B. vulgatus growth from erythromycin: combination with erythromycin
Excerpt: (§4) Checkerboard assays for anaerobic commensals: Validated antagonists were further investigated in 8×8 checkerboard assays, where both antibiotics and antagonists were titrated against each other. Such assays were first performed for the commensals that were originally screened (i. e. B. vulgatus and B. uniformis—4 replicates) and later expanded towards 6 further gut microbes (B. caccae, B. fragilis NT, B. ovatus, B. thetaiotaomicron, P. copri, P. distasonis—2 replicates). For vertical gradients, 2-fold serial dilutions of the antagonists were prepared first in 100× in DMSO and diluted in MGAM as described above (section ‘Validation of microbiome-protective antagonists’). Horizontal antibiotic dilution series were freshly prepared in MGAM at 4× final concentration in equidistant concentration steps. Both, vertical and horizontal dilution series were combined (50 μl of the antagonist gradients (2×) and 25 μl of the antibiotic gradients (4×)) in 96 well plates. Plates were pre-reduced under anaerobic conditions overnight, inoculated with 25 μl of diluted overnight culture (at 4× starting OD) and sealed with breathable membrane (Breathe-Easy®). Bacterial growth was monitored once per hour for 24 hours after 30 sec linear shaking (Eon+Biostack 4, Biotek) under anaerobic conditions. Growth curves were converted into normalized AUCs as described using in-plate controls to define unperturbed growth.

[6] = test system: Staphylococcus aureus; assay: Checkerboard assays for pathogens under aerobic conditions; assay type: cell-based; conditions: for effect on the potency of erythromycin: Staphylococcus aureus, aerobic
Procedure: as §3

[7] = test system: B. vulgatus; assay: Prestwick library screen for microbiome-protective antibiotic antagonists (growth AUC z-scores); assay type: cell-based, Bacteroides vulgatus; conditions: z-score of normalized growth AUC, two replicates
[8] = test system: B. vulgatus; assay: Validation of microbiome-protective antagonists (concentration-dependent growth rescue); assay type: cell-based, Bacteroides vulgatus; conditions: antagonist gradient, normalized AUC >0.25 = growth rescue
Procedure: Validation of microbiome-protective antagonists: In a first step, the inventors kept the erythromycin/doxycycline concentration constant (0.625 μM for erythromycin, 0.078 μM (B. vulgates)/0.039 μM (B. uniformis) for doxycycline) and tested concentration gradients of the potential antagonists with ranges depending on the antagonist's solubility. Compounds were purchased from independent vendors and dissolved at 100× starting concentration in DMSO. Eight 2-fold serial dilutions were prepared in 96-well plates with each row containing a different antagonist, sufficient control DMSO wells and wells with just the respective antibiotic (‘antibiotic-only’ control). These master plates were diluted in MGAM medium (50 μl) to 2×assay concentration and 25 μl freshly prepared antibiotic solution (4× test concentration) was added. Plates were pre-reduced overnight in an anaerobic chamber and inoculated with 25 μl of overnight cultures (prepared as described under “Growth conditions”) to reach a starting OD578 of 0.01 and 1% DMSO concentration. Growth was monitored hourly for 24 h after 30 sec of linear shaking. Experiments were performed in biological triplicates. For analysis, growth curves were converted into normalized AUCs (see above). The inventors accounted for residual growth in the presence of the antibiotic by subtracting the median normalized AUCs of the ‘antibiotic-only’ control per plate.

[9] = test system: synthetic gut commensal community of seven human gut commensals; assay: Synthetic gut commensal community growth with macrolide and antidote (Example 5); assay type: cell-based; conditions: erythromycin and azithromycin
Excerpt: Heat maps depict area under the growth curve (AUC) of a synthetic community consisting of seven human gut commensals. Shown is the median AUC of three individual replicates. All drug concentrations are in μM.
So far, antidote effects have only been analyzed in single or pure cultures. However, the human gut microbiome is a complex community of many different bacterial taxa that is usually not adequately mimicked in monocultures.

[10] = test system: abundant gut commensal species; assay: Checkerboard assays on further abundant gut commensals; assay type: cell-based; conditions: for tested abundant gut commensal species whose growth is rescued: antidote 5-40 μm, clinically relevant erythromycin concentrations; for counteracting erythromycin on other abundant gut commensals: checkerboard with erythromycin
Excerpt: as §4

[11] = test system: E. faecalis; assay: E. faecalis-containing synthetic community, E. faecalis CFU on selective medium (Example 7); assay type: cell-based, Enterococcus faecalis
Excerpt: as §1, §2

[12] = test system: species of the order Bacteroidales; assay: Antidote vs azithromycin across seven gut Bacteroidales (Example 4); assay type: cell-based; conditions: combination with azithromycin
Procedure: The antidotes dicumarol (first column), benzbromarone (second column) and tolfenamic acid (third column) were tested for their efficacy in antagonizing the macrolide antibiotic azithromycin across seven prevalent and abundant gut Bacteroidales (B. vulgatus, B. fragilis NT, B. thetaiotaomicron, P. copri, B. caccae, B. ovatus, P. distasonis). […] All drug concentrations are in μM.
In particular, they aimed at testing, whether these antidotes can also protect from other macrolides such as azithromycin, a clinically more relevant antibiotic.

[13] = test system: S. pneumoniae; conditions: cited from earlier work
[14] = test system: B. uniformis; assay: Growth curves and time-lapse microscopy under erythromycin; assay type: cell-based, Bacteroides uniformis; conditions: 15 μg/ml erythromycin (5-fold MIC), time-lapse microscopy
Procedure: (§5) Microscopy: For live/dead imaging, stained cells were washed twice in 0.85% NaCl before being spotted on 0.85% NaCl+1% agarose pads between a glass slide and a coverslip. For time-lapse imaging, cells were precultured as described in the growth conditions section. […] Slides were sealed with valap and taken outside of the chamber for imaging. The imaging was performed using a Nikon Eclipse Ti inverted microscope, equipped with a Nikon DS-Qi2 camera, a Nikon Plan Apo Lambda 60× oil Ph3 DM phase contrast objective and a Nikon HC mCherry filter set (Ex 562/40; DM 593; BA 641/75) to detect propidium iodide fluorescence. Images were acquired with the NIS-Elements AR4.50.00 software and processed with Fiji v.2.0.0-rc-68/1.52 h.
(§6) Growth curves: Cells were precultured as described in the growth conditions section. Then, cells were diluted to an OD578=0.01 in a 96-well plate sealed with a breathable membrane (Breathe-Easy®) and grown for 2 h. Next, erythromycin was added to the culture to a final concentration of 15 μg/ml (5-fold MIC) and growth curves were acquired for 20 h using a microplate spectrophotometer (EON, Biotek) by measuring the OD578 every hour after 30 sec of linear shaking.

[15] = test system: B. vulgatus; assay: as above; assay type: cell-based, Bacteroides vulgatus; conditions: 15 μg/ml erythromycin (5-fold MIC), time-lapse microscopy
Procedure: as §5, §6

[16] = test system: Staphylococcus; conditions: cited from earlier work
[17] = test system: Streptococcus groups A, B, C & G; conditions: cited from earlier work
[18] = test system: E. faecium; assay: Checkerboard assays for pathogens under aerobic conditions; assay type: cell-based
Procedure: as §3

[19] = erythromycin 1.15 μM + 40 μM dicumarol or 20 μM benzbromarone
[20] = Erythromycin 0.625 μM + 20 μM drug

Compound	rescue from erythromycin or azithromycin treatment [2]	rescue from erythromycin or azithromycin treatment [3]	effect on the potency of erythromycin [4]	rescue of B. vulgatus growth from erythromycin [5]	effect on the potency of erythromycin [6]	Mean z-score [7, 20]	Validation ([8]; Erythromycin 0.625 μM constant)	protection (growth rescue) of synthetic gut commensal community from macrolide antibiotics [9]	tested abundant gut commensal species whose growth is rescued [10]	counteracting erythromycin on other abundant gut commensals [10]	protection of Bacteroidales species from azithromycin [12]	other results
O=c1oc2ccccc2c(O)c1Cc1c(O)c2ccccc2oc1=O [Dicumarol, 3,3′-Methylene-bis(4-hydroxycoumarin)]	Neither dicumarol nor benzbromarone or tolfenamic acid could rescue	Neither dicumarol nor benzbromarone or tolfenamic acid could rescue	did not affect the potency	rescued; also recorded: can rescue the growth	did not affect the potency	7.313	TRUE	can be Protected	5/7	able to counteract erythromycin on several species	can be Protected	community growth (AUC) [1, 19]: the community is rescued; rescue of the community despite erythromycin treatment ([1]; erythromycin + antidote): rescue of the community; E. faecalis counts [11, 19]: drop/are still found at below the detection limit; E. faecalis cells in community under erythromycin + antidote ([11]; erythromycin + antidote): efficiently inhibited
CC[C@H]1OC(=O)[C@H](C)[C@@H](O[C@H]2C[C@@](C)(OC)[C@@H](O)[C@H](C)O2)[C@H](C)[C@@H](O[C@@H]2O[C@H](C)C[C@H](N(C)C)[C@H]2O)[C@](C)(O)C[C@@H](C)C(=O)[C@H](C)[C@@H](O)[C@]1(C)O [Erythromycin, erythromycin]												MIC breakpoint [13]: 0.25 µg/mL (≈ 0.341 µM); community growth (AUC) ([1]; erythromycin 1.15 μM alone): partially inhibited; cell morphology / lysis [14]: cell shape defects, including blebbing, cytoplasmic shrinkage, and ultimately cell lysis; cell morphology / lysis [15]: cell shape defects, including blebbing, cytoplasmic shrinkage, and ultimately cell lysis; MIC breakpoint [16]: 1 µg/mL (≈ 1.36 µM); MIC breakpoint [17]: 0.25 µg/mL (≈ 0.341 µM); E. faecalis cells in the community ([11]; erythromycin 1.15 μM alone): ~9×10^5 cells
Cc1c(Cl)cccc1Nc1ccccc1C(=O)O [Tolfenamic acid]	Neither dicumarol nor benzbromarone or tolfenamic acid could rescue	Neither dicumarol nor benzbromarone or tolfenamic acid could rescue	did not affect the potency	able to protect; also recorded: can rescue the growth	did not affect the potency	7.381	TRUE	can be Protected	5/7	able to counteract erythromycin on several species	can be Protected	interaction with antibacterial effects of erythromycin/azithromycin [2]: synergized; interaction with antibacterial effects of erythromycin/azithromycin [3]: synergized; rescue of B. vulgatus growth from doxycycline ([5]; combination with doxycycline): able to protect; drug interaction with erythromycin in checkerboard [18]: neutral interactions; drug interaction with erythromycin in checkerboard ([6]; S. aureus, aerobic conditions): neutral interactions; Mean z-score ([7]; Doxycycline 0.08 μM + 20 μM drug): 4.000; Validation ([8]; Doxycycline 0.078 μM constant): TRUE
